# Like-named read-outs stand apart in the source and are kept apart here.
# Key:
# [1] = molecular target: H1 (h) (Homo sapiens (Human), UniProt P35367); assay: ExpresSProfile: histamine receptor 1, antagonist radioligand; assay type: binding; details: Test Concentration 1.0E−05 M
# [2] = Plasma protein binding assay, human; assay type: in vitro ADME; details: plasma proteins, 4 h at 37° C., equilibrium dialysis, read-out: % bound [human]
# From the text: (§1) A drug's efficiency may be affected by the degree to which it binds to the proteins within blood plasma. A drug in blood exists in two forms: bound and unbound. Depending on a specific drug's affinity for plasma protein, a proportion of the drug may become bound to plasma proteins, with the remainder being unbound. […] It is also the fraction that may be metabolized and/or excreted. Protein binding can influence the drug's biological half-life in the body. The bound portion may act as a reservoir or depot from which the drug is slowly released as the unbound form. In order to determine the binding characteristics of the compounds of the present invention as listed in the following Table to human or mouse plasma protein, respectively, a plasma protein binding assay was carried out. All compounds have a plasma protein binding that is appropriate for diagnostic, therapeutic and theranostic use of these compounds according to the present invention.
# (§2) The binding of test substances to human and murine plasma proteins was tested by Cerep (Celle l'Evescault, France; Catalog reference 2194 [human] and 2223 [mouse]) according to Banker et al., J. Pharm. Sci., 2003, 92, 967-974. Test compounds were incubated with human or murine plasma proteins for 4 h at 37° C. Subsequently, the fraction of compound bound to plasma proteins was determined by equilibrium dialysis and HPLC-MS/MS detection. […]
# [3] = molecular target: kappa (KOP) (Rattus norvegicus, UniProt P34975); assay: ExpresSProfile: kappa opioid receptor, agonist radioligand; assay type: binding; details: Test Concentration 1.0E−05 M
# [4] = molecular target: norepinephrine transporter (h) (Homo sapiens (Human), UniProt P23975); assay: ExpresSProfile: norepinephrine transporter, antagonist radioligand; assay type: binding; details: Test Concentration 1.0E−05 M
# norepinephrine transporter (h), sequence (P23975 whole entry): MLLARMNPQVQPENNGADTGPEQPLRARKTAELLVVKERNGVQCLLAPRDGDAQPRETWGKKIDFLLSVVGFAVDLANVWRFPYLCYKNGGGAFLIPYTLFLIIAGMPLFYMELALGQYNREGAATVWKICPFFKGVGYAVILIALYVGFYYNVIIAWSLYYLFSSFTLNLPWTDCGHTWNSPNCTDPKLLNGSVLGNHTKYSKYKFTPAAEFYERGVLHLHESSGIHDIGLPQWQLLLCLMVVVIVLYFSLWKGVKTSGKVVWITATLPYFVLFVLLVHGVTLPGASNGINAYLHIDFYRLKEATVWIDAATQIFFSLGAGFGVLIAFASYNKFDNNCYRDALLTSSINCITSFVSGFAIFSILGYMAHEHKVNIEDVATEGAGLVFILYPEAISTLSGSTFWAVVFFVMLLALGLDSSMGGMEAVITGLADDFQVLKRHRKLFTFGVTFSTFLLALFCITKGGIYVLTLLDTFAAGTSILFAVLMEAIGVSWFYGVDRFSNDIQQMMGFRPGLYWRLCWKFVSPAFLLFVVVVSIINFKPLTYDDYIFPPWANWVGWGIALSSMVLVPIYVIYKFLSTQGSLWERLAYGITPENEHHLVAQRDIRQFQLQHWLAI
# [5] = molecular target: 5-HT2B (h) (Homo sapiens (Human), UniProt P41595); assay: ExpresSProfile: 5-hydroxytryptamine receptor 2B, agonist radioligand; assay type: binding; details: Test Concentration 1.0E−05 M
# 5-HT2B (h), sequence (P41595 whole entry): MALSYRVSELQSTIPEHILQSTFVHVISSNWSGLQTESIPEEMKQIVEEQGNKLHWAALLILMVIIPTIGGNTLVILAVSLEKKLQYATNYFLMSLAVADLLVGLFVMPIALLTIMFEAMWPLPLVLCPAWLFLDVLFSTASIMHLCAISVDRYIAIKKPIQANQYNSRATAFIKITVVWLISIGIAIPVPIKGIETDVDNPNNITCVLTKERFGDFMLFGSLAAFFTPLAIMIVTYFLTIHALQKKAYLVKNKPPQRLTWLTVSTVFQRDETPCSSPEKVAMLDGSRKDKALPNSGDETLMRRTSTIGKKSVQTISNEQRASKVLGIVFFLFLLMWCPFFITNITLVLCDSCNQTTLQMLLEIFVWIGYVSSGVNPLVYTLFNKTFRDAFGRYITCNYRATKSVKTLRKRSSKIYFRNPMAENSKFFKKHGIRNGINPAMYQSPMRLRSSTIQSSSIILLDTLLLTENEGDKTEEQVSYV
# [6] = molecular target: 5-HT1A (h) (Homo sapiens (Human), UniProt P08908); assay: ExpresSProfile: 5-hydroxytryptamine receptor 1A, agonist radioligand; assay type: binding; details: Test Concentration 1.0E−05 M
# 5-HT1A (h), sequence (P08908 whole entry): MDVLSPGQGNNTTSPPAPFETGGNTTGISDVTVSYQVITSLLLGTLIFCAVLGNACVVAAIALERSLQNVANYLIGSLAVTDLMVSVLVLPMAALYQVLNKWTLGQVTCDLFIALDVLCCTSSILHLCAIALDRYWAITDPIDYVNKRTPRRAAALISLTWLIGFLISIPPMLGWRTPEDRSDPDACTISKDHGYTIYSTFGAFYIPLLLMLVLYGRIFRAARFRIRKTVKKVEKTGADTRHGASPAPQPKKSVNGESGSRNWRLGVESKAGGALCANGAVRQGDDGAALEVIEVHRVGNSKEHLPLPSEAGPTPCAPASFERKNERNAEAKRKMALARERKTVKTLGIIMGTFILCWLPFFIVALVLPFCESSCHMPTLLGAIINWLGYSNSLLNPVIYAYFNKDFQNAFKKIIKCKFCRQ
# [7] = molecular target: beta 1 (h) (Homo sapiens (Human), UniProt P08588); assay: ExpresSProfile: beta1 adrenergic receptor, agonist radioligand; assay type: binding; details: Test Concentration 1.0E−05 M
# beta 1 (h), sequence (P08588 whole entry): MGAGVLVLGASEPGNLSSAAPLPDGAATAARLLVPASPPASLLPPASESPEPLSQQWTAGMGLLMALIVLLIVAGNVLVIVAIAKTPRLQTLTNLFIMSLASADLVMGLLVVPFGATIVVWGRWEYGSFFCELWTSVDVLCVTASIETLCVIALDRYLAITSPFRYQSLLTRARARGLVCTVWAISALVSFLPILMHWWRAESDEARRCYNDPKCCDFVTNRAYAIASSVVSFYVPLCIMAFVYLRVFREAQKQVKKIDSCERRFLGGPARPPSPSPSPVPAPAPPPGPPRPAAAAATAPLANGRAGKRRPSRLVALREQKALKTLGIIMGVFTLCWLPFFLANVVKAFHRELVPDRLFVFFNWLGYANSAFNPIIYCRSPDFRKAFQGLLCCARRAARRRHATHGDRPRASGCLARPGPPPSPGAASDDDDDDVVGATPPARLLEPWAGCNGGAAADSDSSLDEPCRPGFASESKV
# [8] = Plasma protein binding assay, mouse; assay type: in vitro ADME; details: plasma proteins, 4 h at 37° C., equilibrium dialysis, read-out: % bound [mouse] (converted)
# From the text: as §1, §2
# [9] = molecular target: CCK1 (CCKA) (h) (Homo sapiens (Human), UniProt P32238); assay: ExpresSProfile: cholecystokinin receptor 1, agonist radioligand; assay type: binding; details: Test Concentration 1.0E−05 M
# CCK1 (CCKA) (h), sequence (P32238 whole entry): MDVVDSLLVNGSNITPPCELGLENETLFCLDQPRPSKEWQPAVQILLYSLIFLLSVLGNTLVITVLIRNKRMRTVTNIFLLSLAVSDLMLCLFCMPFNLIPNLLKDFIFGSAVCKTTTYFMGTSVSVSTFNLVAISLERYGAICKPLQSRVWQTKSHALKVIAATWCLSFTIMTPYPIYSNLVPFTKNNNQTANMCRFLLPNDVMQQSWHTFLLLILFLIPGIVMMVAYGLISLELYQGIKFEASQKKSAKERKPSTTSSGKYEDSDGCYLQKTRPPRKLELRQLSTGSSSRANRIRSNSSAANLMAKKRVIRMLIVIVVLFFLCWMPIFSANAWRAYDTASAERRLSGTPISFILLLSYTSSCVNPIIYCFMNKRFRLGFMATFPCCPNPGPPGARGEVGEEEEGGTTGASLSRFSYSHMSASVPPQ
# [10] = Plasma stability assay, human plasma; assay type: in vitro ADME
# Method: The plasma stability assay was performed to measure the degradation of compounds of the present invention in plasma. This is an important characteristic of a compound as compounds, with the exception of pro-drugs, which rapidly degrade in plasma generally show poor in vivo efficacy.
# The plasma was spiked with a 10 mM analyte solution in dimethyl sulfoxide to a final concentration of 10 μM, vortexed, and aliquotted to 50 μl samples. Two aliquots were stored at −20° C. until further treatment. Another two aliquots were incubated using an Eppendorf Thermomixer at 37° C. for 1, 4, and 24 hours. Sample clean-up was performed using a protein precipitation plate (Phenomenex Strata Impact, 64722-1-324-1) and using acetonitrile as precipitation agent. […] An aliquot of 10 μl was diluted with 90 μl 0.1% aqueous trifluoroacetic acid solution. The determination of the analyte in the clean sample solutions was performed on a Thermo TSQ Quantum Ultra triple quadrupole mass spectrometer equipped with a thermo Surveyor HPLC. The chromatographic separation was carried out on a Phenomenex Kinetex XB-C18 HPLC column (50×2 mm, […] particle size) with gradient elution using a mixture of 0.01% trifluoroacetic acid and 0.05% formic acid in water as eluent A and methanol as eluent B (20% B to 100% in 8 min, 400 μl/min, 40° C.). For mass spectrometric detection the selected reaction monitoring (SRM) was used.
# Quantitation was performed by external matrix calibration using an internal standard.
# [11] = test system: KV channel; assay: ExpresSProfile: KV channel, antagonist radioligand; assay type: binding; details: Test Concentration 1.0E−05 M
# [12] = molecular target: mu (MOP) (h) (Homo sapiens (Human), UniProt P35372); assay: ExpresSProfile: mu opioid receptor, agonist radioligand; assay type: binding; details: Test Concentration 1.0E−05 M
# mu (MOP) (h), sequence (P35372 whole entry): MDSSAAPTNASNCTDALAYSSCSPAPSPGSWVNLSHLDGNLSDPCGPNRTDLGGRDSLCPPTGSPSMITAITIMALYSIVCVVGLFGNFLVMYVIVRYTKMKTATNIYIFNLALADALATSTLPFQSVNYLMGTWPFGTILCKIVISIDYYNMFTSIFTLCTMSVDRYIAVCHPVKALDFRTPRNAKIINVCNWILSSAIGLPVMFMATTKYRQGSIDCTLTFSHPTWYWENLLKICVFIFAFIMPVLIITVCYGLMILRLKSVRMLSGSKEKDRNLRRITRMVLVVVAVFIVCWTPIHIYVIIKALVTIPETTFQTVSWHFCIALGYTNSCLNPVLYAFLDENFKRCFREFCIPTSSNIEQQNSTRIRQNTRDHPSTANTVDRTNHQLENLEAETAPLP
# [13] = molecular target: 5-HT5a (h) (Homo sapiens (Human), UniProt P47898); assay: ExpresSProfile: 5-hydroxytryptamine receptor 5a, agonist radioligand; assay type: binding; details: Test Concentration 1.0E−05 M
# 5-HT5a (h), sequence (P47898 whole entry): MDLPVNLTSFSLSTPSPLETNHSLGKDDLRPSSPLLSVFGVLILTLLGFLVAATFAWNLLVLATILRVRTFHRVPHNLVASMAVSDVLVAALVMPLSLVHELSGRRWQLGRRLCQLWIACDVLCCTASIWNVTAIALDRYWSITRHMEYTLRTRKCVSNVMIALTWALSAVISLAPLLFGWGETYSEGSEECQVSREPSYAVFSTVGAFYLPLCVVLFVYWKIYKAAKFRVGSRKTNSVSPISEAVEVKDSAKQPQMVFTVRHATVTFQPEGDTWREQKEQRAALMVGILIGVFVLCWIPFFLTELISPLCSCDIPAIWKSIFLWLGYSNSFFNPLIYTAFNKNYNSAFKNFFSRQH
# [14] = read-out: % Inhibition of Control Specific Binding
# [15] = read-out: % of Control Specific Binding 1st
# [16] = read-out: % of Control Specific Binding 2nd
# [17] = read-out: % of Control Specific Binding Mean
# H1 (h), sequence (P35367 whole entry): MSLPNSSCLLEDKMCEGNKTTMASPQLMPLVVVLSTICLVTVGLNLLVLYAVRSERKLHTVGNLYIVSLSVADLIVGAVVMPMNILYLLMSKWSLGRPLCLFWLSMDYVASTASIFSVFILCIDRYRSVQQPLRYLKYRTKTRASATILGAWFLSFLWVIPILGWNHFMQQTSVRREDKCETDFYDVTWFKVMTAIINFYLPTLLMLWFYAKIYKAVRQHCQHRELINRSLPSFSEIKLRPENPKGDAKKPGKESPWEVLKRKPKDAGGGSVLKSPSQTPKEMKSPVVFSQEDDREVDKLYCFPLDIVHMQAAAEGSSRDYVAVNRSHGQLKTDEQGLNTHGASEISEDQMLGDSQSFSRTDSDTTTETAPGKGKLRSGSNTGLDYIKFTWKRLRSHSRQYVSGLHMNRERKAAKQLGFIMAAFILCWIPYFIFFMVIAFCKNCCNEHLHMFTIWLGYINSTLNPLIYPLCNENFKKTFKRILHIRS
smiles,measurement,setting,value
"COc1cccc(OC)c1-c1cc(C(=O)NC2(C(=O)O)C3CC4CC(C3)CC2C4)nn1-c1ccc(C(=O)N(C)CCCN(C)CCCN(C)C(=O)CN2CCN(CC(=O)O)CCN(CC(=O)O)CCN(CC(=O)O)CC2)cc1C(C)C (centres unmarked) [(IIIa), 2-{[1-{4-[(3-{[3-(DOTA-methyl-amino)-propyl]-methyl-amino}-propyl)-methyl-carbamoyl]-2-isopropyl-phenyl}-5-(2,6-dimethoxy-phenyl)-1H-pyrazole-3-carbonyl]-amino}-adamantane-2-carboxylic acid]",inhibition at 10 µM,[1]; [14],-12%
same,remaining activity at 10 µM,[1]; [15],121%
same,remaining activity at 10 µM,[1]; [16],103%
same,remaining activity at 10 µM,[1]; [17],112%
same,fraction unbound at 4 h,[2],0.01
same,inhibition at 10 µM,[3]; [14],-2%
same,remaining activity at 10 µM,[3]; [15],111%
same,remaining activity at 10 µM,[3]; [16],92.3%
same,remaining activity at 10 µM,[3]; [17],102%
same,inhibition at 10 µM,[4]; [14],-12%
same,remaining activity at 10 µM,[4]; [15],119%
same,remaining activity at 10 µM,[4]; [16],105%
same,remaining activity at 10 µM,[4]; [17],112%
same,inhibition at 10 µM,[5]; [14],-22%
same,remaining activity at 10 µM,[5]; [15],118%
same,remaining activity at 10 µM,[5]; [16],125%
same,remaining activity at 10 µM,[5]; [17],122%
same,inhibition at 10 µM,[6]; [14],-29%
same,remaining activity at 10 µM,[6]; [15],130%
same,remaining activity at 10 µM,[6]; [16],129%
same,remaining activity at 10 µM,[6]; [17],129%
same,inhibition at 10 µM,[7]; [14],2%
same,remaining activity at 10 µM,[7]; [15],89.9%
same,remaining activity at 10 µM,[7]; [16],106%
same,remaining activity at 10 µM,[7]; [17],98%
same,fraction unbound at 4 h,[8],0.11
same,inhibition at 10 µM,[9]; [14],-18%
same,remaining activity at 10 µM,[9]; [15],102%
same,remaining activity at 10 µM,[9]; [16],135%
same,remaining activity at 10 µM,[9]; [17],118%
same,stability in human plasma,[10],highly stable
same,"% remaining after 24 h incubation, Human plasma","[10]; 10 μM, 37° C., 24 h",>90%
same,% Inhibition of Control Specific Binding,[11],−4%
same,% of Control Specific Binding 1st,[11],104.3%
same,% of Control Specific Binding 2nd,[11],104.2%
same,% of Control Specific Binding Mean,[11],104.3%
same,inhibition at 10 µM,[12]; [14],0%
same,remaining activity at 10 µM,[12]; [15],108%
same,remaining activity at 10 µM,[12]; [16],92.6%
same,remaining activity at 10 µM,[12]; [17],100%
same,inhibition at 10 µM,[13]; [14],-2%
same,remaining activity at 10 µM,[13]; [15],109%
same,remaining activity at 10 µM,[13]; [16],95.2%
same,remaining activity at 10 µM,[13]; [17],102%
